This assay concerns Monocyte-derived DCs. Description: DC-EC co-culture and DC activation. It counts as cell-based, human. How it is done:
Monocyte-derived DCs (DCs) were generated from primary human monocytes obtained from PBMCs (purity>98%) as described (Sallusto and Lanzavecchia 1994, Magérus-Chatinet, Yu et al. 2007). In brief, human peripheral blood mononuclear cells (PBMC) were separated from healthy donors blood (EFS, Paris, France), and monocytes were purified from PBMC by negative selection according to manufacturer instructions (StemCell Technologies, France). DCs were obtained by incubating monocytes for 7 days in complete medium containing GM-CSF (100 ng/ml) and IL-4 ([…]).
Three DC culture systems were developed. Monocytes derived DCs (5×10^5 cells) were incubate for 24 h in medium alone and considered as non-mucosal DCs (DCs) or co-cultured with nasal epithelial cell (RPMI-2650 cell line) monolayer in 24-well plate (DC-EC or eduDC systems for 24 hours at 37° C. In turn, DCs were either further cultured with ECs during P1 stimulation (DC-ECs) or separated from EC and transferred into a new plate (eduDCs) for further P1 treatment. Subsequently, P1 (clade B, 125 μM) or medium were added to each of the DCs, DC-ECs or eduDCs cultures for 16 hrs. DCs were collected for surface staining with allophycocyanin (APC)-conjugated anti-CD86, R-phycoerythrin (PE)-conjugated anti-CD83, APC-conjugated anti-TSLPR, PE-conjugated anti-IL-7Rα antibodies (all from Bio-Techne). Specific labeling was quantified by flow cytometry using a Guava EasyCyte flow cytometer and the InCyte software (Merck) described (Duchemin, Khamassi et al. 2018). Culture supernatant were collected and frozen at −80° C. for subsequent cytokine and chemokine analyses.
In particular, mucosal DCs modulate their functions by interacting with epithelial cells (ECs) including via epithelial secretion of TSLP (Rimoldi, Chieppa et al. 2005, Biton, Levin et al. 2011). Thus, we established a simplified mucosal DC model, by co-culturing DCs and nasal ECs (RPMI-2650 cell line), thereby mimicking the nasal mucosal environment. DCs were first ‘educated’ by a 24 hr co-culture with ECs. Subsequently, these ‘educated’ DCs were either maintained in culture with ECs and referred to as DC-EC, or separated from the epithelium and referred to as eduDC. Alternatively, DCs only cultured with medium represented ‘non-mucosal’ DCs.

On to “SQNQQEKNEQELLELDKWASLWNWFNITNWLWYIK [P1]”, for which the “expression of maturation markers CD83 and CD86” value ('non-mucosal' DCs, P1 125 μM overnight) is on record as “has no effect”. In addition, under “DC models upon P1 stimulation”, the IFN-γ secretion result is “remains unchanged upon P1-stimulation or slightly decreases in DC-EC”. The “expression of TSLP receptor (TSLP-R and IL-7Rα)” value (DCs in all three models) was “significantly enhanced the expression of TSLP receptor”. Besides, the “IL-12, IL-13, CCL2, CCL17, TNF-α, APRIL and BAFF secretion” value (DCs, DC-EC, eduDC) is “secreted equally in all three models”. The TSLP secretion entry (eduDC and DC-EC models) was “more modest”. Also, the “IL-6, IL-8, IL-10, CCL20, CCL22 and MMP-9 secretion” value (eduDC and DC-EC models compared with non-mucosal DCs) was “significant increase”. In addition, the “expression of co-stimulatory molecules CD83 and CD86” value (mucosal DCs (DC-EC or eduDCs), P1 125 μM overnight, versus untreated) is on record as “significant up-regulation”. The “IL-25, IL-33, IL-4, IL-5 secretion” value (whatever the model) is listed as “remain undetectable”.

The values above are taken from US20240016924A1, “NEW ADJUVANT TO IMPROVE THE INNATE IMMUNITY” (INSTITUT NATIONAL DE LA SANTÉ ET DE LA RECHERCHE MÉDICALE, priority 2020, published 2024).
